Like-named read-outs stand apart in the source and are kept apart here.
System: IL-1β production in PMA-differentiated THP-1 cells
Experiment: IL-1β production in PMA-differentiated THP-1 cells stimulated with gramicidin (hTHP-1 assay, 2% fetal bovine serum; Procedures 1-3)
Format: cell-based, human
Settings: class symbols, read-out: hTHP-1 IC50 (Average IC50 of compounds in hTHP-1 assay)
Experimental: The following protocol is suitable for testing the activity of the compounds disclosed herein.
Procedure 1: IL-1β Production in PMA-Differentiated THP-1 Cells Stimulated with Gramicidin
THP-1 cells were purchased from the American Type Culture Collection and sub-cultured according to instructions from the supplier. Cells were cultured in complete RPMI 1640 (containing 10% heat inactivated FBS, penicillin (100 units/ml) and streptomycin (100 μg/ml)), and maintained in log phase prior to experimental setup. Prior to the experiment, compounds were dissolved in dimethyl sulfoxide (DMSO) to generate a 30 mM stock. The compound stock was first pre-diluted in DMSO to 3, 0.34, 0.042 and 0.0083 mM intermediate concentrations and subsequently spotted using Echo550 liquid handler into an empty 384-well assay plate to achieve desired final concentration (e.g. 100, 33, 11, 3.7, 1.2, 0.41, 0.14, 0.046, 0.015, 0.0051, 0.0017 μM). DMSO was backfilled in the plate to achieve a final DMSO assay concentration of 0.37%. The plate was then sealed and stored at room temperature until required.
THP-1 cells were treated with PMA (Phorbol 12-myristate 13-acetate) (20 ng/ml) for 16-18 hours. On the day of the experiment the media was removed and adherent cells were detached with trypsin for 5 minutes. Cells were then harvested, washed with complete RPMI 1640, spun down, and resuspended in RPMI 1640 (containing 2% heat inactivated FBS, penicillin (100 units/ml) and streptomycin (100 μg/ml). The cells were plated in the 384-well assay plate containing the spotted compounds at a density of 50,000 cells/well (final assay volume 50 μl). Cells were incubated with compounds for 1 hour and then stimulated with gramicidin (5 μM) (Enzo) for 2 hours. Plates were then centrifuged at 340 g for 5 min. Cell free supernatant (40 μL) was collected using a 96-channel PlateMaster (Gilson) and the production of IL-1β was evaluated by HTRF (cisbio). The plates were incubated for 18 h at 4° C. and read using the preset HTRF program (donor emission at 620 nm, acceptor emission at 668 nm) of the SpectraMax i3x spectrophotometer (Molecular Devices, software SoftMax 6). A vehicle only control and a dose titration of CRID3 (100-0.0017 μM) were run concurrently with each experiment.
Procedure 2: IL-1β Production in PMA-Differentiated THP-1 Cells Stimulated with Gramicidin
THP-1 cells were purchased from the American Type Culture Collection and sub-cultured according to instructions from the supplier. Prior to experiments, cells were cultured in complete RPMI 1640 (containing 10% heat inactivated FBS, penicillin (100 units/ml) and streptomycin (100 μg/ml)), and maintained in log phase prior to experimental setup. Prior to the experiment THP-1 were treated with PMA (Phorbol 12-myristate 13-acetate) (20 ng/ml) for 16-18 hours. Compounds were dissolved in dimethyl sulfoxide (DMSO) to generate a 30 mM stock. On the day of the experiment the media was removed and adherent cells were detached with trypsin for 5 minutes. Cells were then harvested, washed with complete RPMI 1640, spun down, resuspended in RPMI 1640 (containing 2% heat inactivated FBS, penicillin (100 units/ml) and streptomycin (100 μg/ml). The cells were plated in a 384-well plate at a density of 50,000 cells/well (final assay volume 50 μl). Compounds were first dissolved in assay medium to obtain a 5× top concentration of 500 μM. 10 step dilutions (1:3) were then undertaken in assay medium containing 1.67% DMSO. 5× compound solutions were added to the culture medium to achieve desired final concentration (e.g. 100, 33, 11, 3.7, 1.2, 0.41, 0.14, 0.046, 0.015, 0.0051, […]). Final DMSO concentration was at 0.37%. Cells were incubated with compounds for 1 hour and then stimulated with gramicidin (5 μM) (Enzo) for 2 hours. Plates were then centrifuged at 340 g for 5 min. Cell free supernatant (40 μL) was collected using a 96-channel PlateMaster (Gilson) and the production of IL-1β was evaluated by HTRF (cisbio). […]

[1] = hTHP-1 assay containing 2% fetal bovine serum
[2] = Homo sapiens, THP-1, hTHP-1 assay containing 2% fetal bovine serum

| IC50 [1] | IC50 [2] | Structure (SMILES) |
| --- | --- | --- |
| 40 to 200 nM |  | CC(=O)c1ncc(S(N)(=O)=NC(=O)Nc2c3c(cc4c2CCC4)CCC3)s1 (single isomer, unassigned) [Example 418, (S) or (R)-2-acetyl-N′-((1,2,3,5,6,7-hexahydro-s-indacen-4-yl)carbamoyl)thiazole-5-sulfonimidamide] |
| 8 to 40 nM |  | CC(C)c1cc(F)cc(C(C)C)c1NC(=O)N=S(N)(=O)c1cc(C(C)(C)O)cs1 (single isomer, unassigned) [Example 140] |
| 40 to 200 nM |  | CN(C)Cc1ccc(S(N)(=O)=NC(=O)Nc2c3c(cc4c2CCC4)CCC3)c(F)c1 (single isomer, unassigned) [Example 154] |
| 200 to 1000 nM |  | CC(C)c1cc(C#N)c(F)c(C(C)C)c1NC(=O)N=S(N)(=O)c1cnc(C(C)(O)CO)s1 (single isomer, unassigned) [Example 318, (S,S) or (S,R) or (R,R) or (R,S)-N-((4-cyano-3-fluoro-2,6-diisopropylphenyl)carbamoyl)-2-(1,2-dihydroxypropan-2-yl)thiazole-5-sulfonimidamide] |
|  | 200 to 1000 nM | CC(C)c1cc(F)cc(C(C)C)c1NC(=O)N=S(N)(=O)c1ccc(C(C)(C)O)s1 (stereo not shown) [Example 49, N′-(4-fluoro-2,6-diisopropylphenylcarbamoyl)-5-(2-hydroxypropan-2-yl)thiophene-2-sulfonimidamide] |
|  | 40 to 200 nM | CC(C)(O)c1cnc(S(N)(=O)=NC(=O)Nc2c3c(cc4c2OCC4)CCC3)s1 (stereo not shown) [Example 258, 5-(2-Hydroxypropan-2-yl)-N′-((3,5,6,7-tetrahydro-2H-indeno[5,6-b]furan-8-yl)carbamoyl)thiazole-2-sulfonimidamide] |
| 5000 to 30000 nM |  | CC(C)(O)c1cccc(S(N)(=O)=NC(=O)Nc2c3c(cc4c2CCC4)CCC3)c1 (single isomer, unassigned) [Example 150] |
| < 8 nM |  | CC(C)(O)c1coc(S(N)(=O)=NC(=O)Nc2c3c(cc4c2CCC4)CCC3)c1 (single isomer, unassigned) [Example 203] |
|  | 40 to 200 nM | CN(C)C(C)(C)c1ccc(S(N)(=O)=NC(=O)Nc2c3c(cc4c2CCC4)CCC3)cc1 (stereo not shown) [Example 267, 4-(2-(Dimethylamino)propan-2-yl)-N′-(1,2,3,5,6,7-hexahydro-s-indacen-4-ylcarbamoyl)benzenesulfonimidamide] |
|  | < 8 nM | Cc1oc(S(N)(=O)=NC(=O)Nc2c3c(c(F)c4c2CCC4)CCC3)cc1C(C)(C)O (stereo not shown) [Example 45, N′-(8-fluoro-1,2,3,5,6,7-hexahydro-s-indacen-4-ylcarbamoyl)-4-(2-hydroxypropan-2-yl)-5-methylfuran-2-sulfonimidamide] |
|  | 8 to 40 nM | CC(C)(O)c1csc(S(N)(=O)=NC(=O)Nc2c3c(c(F)c4c2CCC4)CCC3)n1 (stereo not shown) [Example 61, N′-((8-fluoro-1,2,3,5,6,7-hexahydro-s-indacen-4-yl)carbamoyl)-4-(2-hydroxypropan-2-yl)thiazole-2-sulfonimidamide] |
| 1000 to 5000 nM |  | CC(C)(O)c1csc(S(N)(=O)=NC(=O)Nc2c3c(c(C#N)c4c2CCC4)CCC3)c1 (single isomer, unassigned) [Example 114] |
| < 8 nM |  | CC(C)(O)c1ncc(S(N)(=O)=NC(=O)Nc2c3c(cc4c2CC4)CC3)s1 (single isomer, unassigned) [Example 355, (R) or (S)-2-(2-hydroxypropan-2-yl)-N′-(tricyclo[6.2.0.03,6]deca-1,3(6),7-trien-2-ylcarbamoyl)thiazole-5-sulfonimidamide] |
| 5000 to 30000 nM |  | CC(c1ccc(S(N)(=O)=NC(=O)Nc2c3c(cc4c2CCC4)CCC3)cc1)N(C)C (single isomer, unassigned) [Example 371, (S) or (R)-4-(1-(dimethylamino)ethyl)-N′-((1,2,3,5,6,7-hexahydro-s-indacen-4-yl)carbamoyl)benzenesulfonimidamide] |
|  | 200 to 1000 nM | CN(C)Cc1ccc(S(N)(=O)=NC(=O)Nc2c3c(cc4c2CCC4)CCC3)nc1 (stereo not shown) [Example 278, 5-((Dimethylamino)methyl)-N′-(1,2,3,5,6,7-hexahydro-s-indacen-4-ylcarbamoyl)pyridine-2-sulfonimidamide] |
| 1000 to 5000 nM |  | CN(C)Cc1ccc(S(N)(=O)=NC(=O)Nc2c3c(cc4c2CCC4)CCC3)cc1 (single isomer, unassigned) [Example 118] |
| 40 to 200 nM |  | CC1CCc2c1cc1c(c2NC(=O)N=S(N)(=O)c2cnc(C(C)(C)O)s2)CCC1 (single isomer, unassigned) [Example 323, (R,R) or (R,S)-2-(2-hydroxypropan-2-yl)-N′-((1-methyl-1,2,3,5,6,7-hexahydro-s-indacen-4-yl)carbamoyl)thiazole-5-sulfonimidamide (from Example 291)] |
| 200 to 1000 nM |  | CC(C)(O)c1csc(S(N)(=O)=NC(=O)Nc2c3c(c(F)c4c2CCC4)CCC3)n1 (single isomer, unassigned) [Example 311, (S) or (R)-N′-((8-fluoro-1,2,3,5,6,7-hexahydro-s-indacen-4-yl)carbamoyl)-4-(2-hydroxypropan-2-yl)thiazole-2-sulfonimidamide] |
| 5000 to 30000 nM |  | CNS(=O)(=NC(=O)Nc1c2c(c(F)c3c1CCC3)CCC2)c1cc(C(C)(C)O)cs1 (single isomer, unassigned) [Example 181] |
| 1000 to 5000 nM |  | CC(C)(O)c1ncc(S(N)(=O)=NC(=O)Nc2c3c(cc4c2OCC4)CCC3)s1 (single isomer, unassigned) [Example 344, (R) or (S)-2-(2-hydroxypropan-2-yl)-N′-((3,5,6,7-tetrahydro-2H-indeno[5,6-b]furan-8-yl)carbamoyl)thiazole-5-sulfonimidamide] |
|  | 40 to 200 nM | CC(C)(O)c1ccc(S(N)(=O)=NC(=O)Nc2c3c(c(Cl)c4c2CCC4)CCC3)c(F)c1 (stereo not shown) [Example 41] |
|  | 40 to 200 nM | CN(C)Cc1ccc(S(N)(=O)=NC(=O)Nc2c3c(cc4c2CCC4)CCC3)cc1 (stereo not shown) [Example 28, 4-((dimethylamino)methyl)-N′-(1,2,3,5,6,7-hexahydro-s-indacen-4-ylcarbamoyl)benzenesulfonimidamide] |
| 200 to 1000 nM |  | Cc1oc(S(N)(=O)=NC(=O)Nc2c3c(cc4c2C(C)CC4)CCC3)cc1C(C)(C)O (single isomer, unassigned) [Example 302, (R,R) or (R,S) or (S,S) or (S,R)-4-(2-hydroxypropan-2-yl)-5-methyl-N′-((3-methyl-1,2,3,5,6,7-hexahydro-s-indacen-4-yl)carbamoyl)furan-2-sulfonimidamide resolved from example 127] |
| 40 to 200 nM |  | CC(C)(O)c1ccc(S(N)(=O)=NC(=O)Nc2c3c(c(Cl)c4c2CCC4)CCC3)c(F)c1 (single isomer, unassigned) [Example 142] |
| 1000 to 5000 nM |  | CC(C)(O)c1cc(F)cc(S(N)(=O)=NC(=O)Nc2c3c(c(F)c4c2CCC4)CCC3)c1 (single isomer, unassigned) [Example 170] |
| 8 to 40 nM |  | Cc1sc(S(N)(=O)=NC(=O)Nc2c3c(cc4c2CCC4)CCC3)cc1C(C)(C)O (single isomer, unassigned) [Example 85] |

— patent publication US11724992B2 (Novartis AG, priority 2017, dated 2023)
